Measured values reported in PubChem BioAssay AID489040 (Sanford-Burnham Center for Chemical Genomics, 2010).
Activity calls are given as the source filed them.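 The calls were made as follows: active = mean half-maximal activating concentration from the dose-response fit at or below a set limit; inactive = the rest.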

Target: CHO-XBP1 luciferase reporter, IRE1-XBP1 UPR activation
Assay: activators of IRE1-XBP1 UPR arm, dose response, counter-screen for apoptotic UPR arm activators, CHO-XBP1 cells, luminescence (AID 489040);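 also: reporter read after six hours of compound exposure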

SMILES | EC50
COc1ccc(/C=C/C(=O)c2ccc([N+](=O)[O-])o2)cc1 | > 80 µM (inactive)
Cc1ccc(/C=C2\CCC3=C2OC(N)=C(C#N)C3c2ccc(C)cc2)cc1 (stereo not drawn) | > 80 µM (inactive)
CCc1ccc(-n2c(SCC(=O)c3ccc4c(c3)NC(=O)CO4)nc3ccccc3c2=O)cc1 | 10.5 µM
Cn1cc(/C=C2\SC(=O)NC2=S)c2ccccc21 | inactive
CCCCCCCC(=O)Nc1ccc(C(=O)N/N=C/c2cccc([N+](=O)[O-])c2)cc1 | 17.5 µM
COc1ccc2c(C(=O)CCl)c[nH]c2c1 | > 80 µM (inactive)
CC(C)N1CSC(=S)N(Cc2ccccc2)C1 | > 80 µM (inactive)
C=CCSC(=C(C#N)C#N)c1cc2c([nH]1)CCCC2 | > 80 µM (inactive)
C/C(=N\NC(=O)c1ccc(F)cc1)c1ccccn1 | > 80 µM (inactive)
COc1ccc(-c2oc(NC(=O)CCl)c(C#N)c2-c2ccc(OC)cc2)cc1 | > 80 µM (inactive)
Cc1cccc(CS(=O)(=O)c2ncc(Cl)c(C(=O)Nc3ccc(F)cc3)n2)c1 | > 80 µM (inactive)
O=C(Nc1nc(-c2ccc3ccccc3c2)cs1)c1ccc(N2C(=O)CCC2=O)cc1 | > 80 µM (inactive)
Cc1ccc2nc(-c3ccc(O)c(O)c3)cn2c1 | > 80 µM (inactive)
CCOC(=O)Cc1csc(/N=C/c2c(O)n(-c3ccc(C)c(C)c3)c(=O)c3ccccc23)n1 | 18.3 µM
O=C(N/N=C\c1cc2c(cc1Cl)OCO2)c1ccc(Br)s1 | > 80 µM (inactive)
Oc1[nH]c2ccccc2c1N=NC(=S)N1CCOCC1 | inactive
CCc1ccc(NC(=O)C(CC)Sc2nc3cc4c(cc3c(=O)n2Cc2ccco2)OCO4)cc1 (stereo not drawn) | > 80 µM (inactive)
COc1cc(NS(=O)(=O)c2ccc3ccccc3c2)c2ncccc2c1 | 15.5 µM
Cc1cc(C)n(-c2nc(NC(C)(C)C)nc(NC(C)(C)C)n2)n1 | > 80 µM (inactive)
C/C(=N\NC(=O)c1ccc(Cl)c(Cl)c1)c1ccccn1 | > 80 µM (inactive)
Nc1c(C(=O)Nc2ccc(S(=O)(=O)N3CCCC3)cc2)sc2nc3ccc(OC(F)(F)F)cc3cc12 | > 80 µM (inactive)
Cc1ccc(Nc2nc(-c3ccc(O)c(O)c3)cs2)nc1 | > 80 µM (inactive)
Cc1nc(SCC(=O)Nc2ccc(F)cc2)c(C#N)c(C)c1CC(=O)c1ccc(Br)cc1 | > 80 µM (inactive)
O=C(/C=C/c1ccc(O)c(O)c1)c1ccccc1O | > 80 µM (inactive)
CCOC(=O)N1CCN(Cc2cc(Cl)c3cccnc3c2O)CC1 | > 80 µM (inactive)

SMILES | EC50
Nc1nnnn1/N=C/C(Br)=C/c1ccccc1 | > 80 µM (inactive)
O=c1c2c3c(sc2ncn1/N=C/c1ccc([N+](=O)[O-])o1)CCCC3 | > 80 µM (inactive)
CC1=NN(c2cccc(C(=O)O)c2)C(=O)/C1=C\C=C/c1ccccc1 | > 80 µM (inactive)
Cc1ccc(Cc2cnc(NC(=O)/C(C#N)=C/c3ccc(-c4ccc([N+](=O)[O-])cc4)o3)s2)cc1 | inactive
COc1cccc2sc(Nc3nc(-c4ccccn4)cs3)nc12 | > 80 µM (inactive)
O=C(Oc1ccccc1/C=C\C(=O)c1cc2ccccc2o1)c1ccccc1 | > 80 µM (inactive)
COC(=O)c1ccc(C(=O)OC)c(NC(=O)CSc2cccc[n+]2[O-])c1 | 9.54 µM
COc1ccc(C2c3ccc4ccccc4c3Oc3ncn(CCCN(C)C)c(=N)c32)cc1 (stereo not drawn) | > 80 µM (inactive)
COc1cc(/C=C(/C(=O)c2cccs2)c2nc3ccccc3[nH]2)cc(OC)c1O | > 80 µM (inactive)
CCOc1cc(/C=C2/C(=N)N3C=CSC3=NC2=O)ccc1OCCCOc1ccccc1C | 20 µM
O=C1NC(=O)N(c2ccccc2)C(=O)/C1=C/C=C/c1ccco1 | > 80 µM (inactive)
Oc1ccc(/C=N/Nc2ncnc3c2ncn3Cc2ccccc2)cc1O | inactive
Cc1[nH]c2c(C)cccc2c1CCNC(=O)c1ccc2c(c1[N+](=O)[O-])C(=O)c1ccccc1C2=O | > 80 µM (inactive)
Oc1ccc(CN2CCN(Cc3ccccc3)CC2)c2cccnc12 | > 80 µM (inactive)
CC1=NOC(=O)/C1=C/c1ccc(-c2ccc(Cl)cc2)o1 | > 80 µM (inactive)
Cc1cnc(NC(=O)c2cc(S(=O)(=O)N(C)C)ccc2N2CCCC2)s1 | 3.28 µM
COc1ccccc1N=c1oc2c(OC)cccc2cc1C(=O)NCc1ccco1 | inactive
CC(C)CNC(=O)c1coc(=O)c(Br)c1 | > 80 µM (inactive)
CS(=O)(=O)Oc1ccc2c(c1)O/C(=C\C=C\c1ccccc1)C2=O | > 80 µM (inactive)
O=C(Nc1ccc(S(=O)(=O)N2CCCC2)cc1)c1ccc([N+](=O)[O-])o1 | > 80 µM (inactive)
Cc1coc2c1C(=O)C(=O)c1c-2ccc2c(C)cccc12 | > 80 µM (inactive)
CC(NC(=O)CN(c1cccc(C(F)(F)F)c1)S(=O)(=O)c1ccc(Cl)c([N+](=O)[O-])c1)c1ccccc1 (stereo not drawn) | > 80 µM (inactive)
CC1(C)CCSC(/C=C/c2ccccc2)=N1 | > 80 µM (inactive)
O=C1Nc2ccc(Br)cc2/C1=N/N=C/C1=C(N2CCOCC2)C(=C\c2ccccc2)/CC1 | > 80 µM (inactive)
O=C(/C=C/c1ccco1)NC(=S)Nc1ccc(O)c(-c2nc3ccccc3s2)c1 | 9.84 µM

SMILES | EC50
Cc1cccc(Cn2cc(/C=C/[N+](=O)[O-])c3ccccc32)c1 | > 80 µM (inactive)
Cc1ccc(Sc2c([N+](=O)[O-])c(=O)n(C)c3ccccc23)cc1 | > 80 µM (inactive)
O=C(NCCc1ccc(F)cc1)c1coc(=O)c(Br)c1 | > 80 µM (inactive)
Oc1ccc(/C=N/Nc2cc(N3CCOCC3)nc(N3CCOCC3)n2)cc1O | > 80 µM (inactive)
O=C(NC1CCCC1)C(c1ccc(Cl)cc1)N(Cc1ccc(F)cc1)C(=O)CCl (stereo not drawn) | > 80 µM (inactive)
CN(C)C(=S)N=Nc1[nH]c2ccccc2c1O | > 80 µM (inactive)
Cc1cccc(N=Nc2ccc(O)c3ncccc23)c1 | > 80 µM (inactive)
CCSC1(SCC)N=C(N)C2(C#N)C(c3ccc(OC)c(OC)c3OC)C12C#N (stereo not drawn) | > 80 µM (inactive)
COCc1ccc(O)c2ncccc12 | inactive
S=C(Nc1ccccc1)Nc1nccs1 | > 80 µM (inactive)
N#C/C(=C\c1ccc(OCc2ccccc2)cc1)C(=O)Nc1nc2c(s1)CCN(Cc1ccccc1)C2 | > 80 µM (inactive)
CCCCCCCCCn1c2c(c(=N)c3c1CCC3)CCC2 | > 80 µM (inactive)
COc1cccc(-n2c(SCC(=O)N3CCc4ccccc43)nnc2-c2c[nH]c3ccccc23)c1 | inactive
CN1CSC(=S)N(C)C1 | > 80 µM (inactive)
O=[N+]([O-])/C=C\c1ccc(N2CCOCC2)cc1 | > 80 µM (inactive)
CCOC(=O)c1c(C)oc2c1c(C(c1cccnc1)N1CCCCC1)c(O)c1ccccc12 (stereo not drawn) | > 80 µM (inactive)
COc1ccc(N2CCN(Cc3cc(=O)oc4cc(-c5ccccc5)c(O)cc34)CC2)cc1 | > 80 µM (inactive)
CCCN(CCC)C(=O)c1cc([N+](=O)[O-])cc2c1-c1ccc([N+](=O)[O-])cc1C2=C(C#N)C#N | > 80 µM (inactive)
CC[C@@H](C)[C@H](NC(=O)OC(C)(C)C)c1nnc(S(=O)(=O)Cc2cc(C)ccc2C)o1 | > 80 µM (inactive)
O=C(CCl)Nc1cccc(S(=O)(=O)NC2=NCCCCC2)c1 | > 80 µM (inactive)
O=C(Nc1ccc(O)c2c(=O)cc(-c3cccc(Cl)c3)oc12)c1ccccc1Cl | > 80 µM (inactive)
C/C(=N\Nc1ncnc2sc(C)c(C)c12)c1ccccn1 | inactive
O=C(NCc1ccccc1Br)c1cccc2c1C(=O)c1ccc(-c3ccc(OC(F)(F)F)cc3)cc1S2(=O)=O | 17 µM
CCn1cc(C(=O)NC(=S)Nc2sc3c(c2C(=O)OC)CCCCCC3)cn1 | inactive
CC1=C(CC/C(C)=N/NC(N)=S)C(C)(C)CCC1 | inactive

SMILES | EC50
Oc1c(N=Nc2ccccn2)ccc2ccccc12 | > 80 µM (inactive)
Cc1cc(O)c(-c2cc(O)c(C)cc2O)cc1O | > 80 µM (inactive)
COc1ccc(N2C(=O)/C(=C/c3cccs3)C(=O)NC2=S)cc1 | > 80 µM (inactive)
CC(C)c1ccc(/C=C(\c2nc3ccccc3[nH]2)S(=O)(=O)c2ccccc2)cc1 | > 80 µM (inactive)
Cc1cc(C)cc(N2C(=O)NC(=O)/C(=C\c3cccn3-c3ccccc3)C2=O)c1 | > 80 µM (inactive)
CCOC(=O)C(=Cc1ccc(-n2ccnc2)cc1)C(=O)OCC | > 80 µM (inactive)
CS(=O)(=O)c1nc(-c2ccc(Br)cc2)cc(-c2ccccc2)c1C#N | > 80 µM (inactive)
CC(C)c1ccc(N2C(=O)NC(=O)/C(=C\C=C\c3ccco3)C2=O)cc1 | > 80 µM (inactive)
Cc1ccc(Cc2cnc(NC(=O)/C(C#N)=C/c3ccc(-c4cccc([N+](=O)[O-])c4)o3)s2)cc1 | 9.32 µM
Cc1ccc(-c2cc(NC(=O)CCl)n(-c3ccccc3)n2)cc1 | > 80 µM (inactive)
COc1ccc(-c2cc(-c3ccccc3)c(C#N)c(S(C)(=O)=O)n2)cc1 | 5.94 µM
O=C(Nc1nc2ccc(F)cc2s1)c1ccccn1 | > 80 µM (inactive)
O=C(CSc1nc2ccc(Nc3nc(N4CCOCC4)nc(N4CCOCC4)n3)cc2s1)Nc1ccccc1F | 5.61 µM
CC(C)[C@H](NC(=O)OC(C)(C)C)c1nnc(S(=O)(=O)Cc2c(F)cccc2Cl)o1 | > 80 µM (inactive)
Cc1cccc(Nc2nc(-c3ccccn3)cs2)n1 | > 80 µM (inactive)
CCc1ccccc1NC(=S)N=Nc1c(O)n(C)c2ccc(S(=O)(=O)N3CCOCC3)cc12 | > 80 µM (inactive)
CC(C)(C)C(=O)OCc1nc(-c2ccc(O)c(O)c2)cs1 | > 80 µM (inactive)
Cc1cccc(C)c1NC(=O)C(Cl)C(=O)c1ccccc1 (stereo not drawn) | > 80 µM (inactive)
N#CC1(C#N)COC23CCCCC2C1(C#N)C(=N)O3 (stereo not drawn) | > 80 µM (inactive)
Cc1c(C#N)c(NC(=O)CCl)n(Cc2cccs2)c1C | > 80 µM (inactive)
O=C(N/N=C/c1ccccn1)c1cc(-c2ccc(Cl)cc2)nc2ccccc12 | > 80 µM (inactive)
O=C(N/N=C/c1ccc(O)c(O)c1)NC12CC3CC(CC(C3)C1)C2 | 14.2 µM
CC(C)(C)C(=O)N1CCN(c2ccc(NC(=O)c3ccc([N+](=O)[O-])o3)cc2)CC1 | > 80 µM (inactive)
